The record followed here is patent US20060234909A1, “Compositions and methods for increasing drug efficiency” (priority 2003, published 2006).

For data set [1], the system named is MCF-7 breast carcinoma. The data set can be described thus: Cytotoxicity assay (monolayer), MCF-7.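 Further: cells treated 72 h with 6-8 compound doses versus DMSO vehicle controls, EC50 fitted by 4-parameter dose-response curves, averaged across all tests and lots.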 It counts as cell-based. The note with it: MCF7, ML (monolayer); read-out: MCF7 (EC50 Ave) ML.
Data set [2] has as its system HT-29 colorectal carcinoma. The data set can be described thus: Cytotoxicity assay (monolayer), HT-29.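 Further: monolayer cultures tested in triplicate, compound exposure for three days against DMSO vehicle controls, EC50 fitted from dose-response curves and averaged across all tests and lots.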 It counts as cell-based. The note with it: HT29, ML (monolayer); read-out: HT29 (EC50 Ave) ML.
The subject of data set [3] is HT-29 cells. The note with it: read-out: HT29 (EC50 Ave) SA; HT29, SA (soft agar).
In data set [4] the test system is Normal human foreskin fibroblasts (HFF). To be noted: read-out: HFF (EC50 Ave) ML; HFF, ML (monolayer).
Data set [5] has as its system MCF-7 cells. The note with it: read-out: MCF7 (EC50 Ave) SA; MCF7, SA (soft agar).
Data set [6] concerns tubulin. The experiment in a line: Fluorescence-based tubulin polymerization assay (MPA; enhancement for paclitaxel, inhibition for vinblastine). The class given is biochemical. The text has this:
Drug-linker constructs may further be screened using functional assays predictive of biological activity. […] Tubulin assembly or inhibition thereof may be monitored by fluorescence using the CytoDYNAMIX Screen™ 10 kit available from Cytoskeleton (1830 S. Acoma St., Denver, Colo.). […] Emission is monitored at 405 nm with excitation at 360 nm. […] Tubulin assembly or inhibition may also be monitored by light scattering which is approximated by the apparent absorption at 350 nm. For paclitaxel drug conjugates BSA is employed to prevent aggregation and glycerol, which is a tubulin polymerization enhancer, is omitted from the kit to increase the signal to noise ratio.
The assay kit (#BK011) was purchased from Cytoskeleton (Denver, Colo.). The assays were carried out according to the manufacturer's instructions, except that 1 mg/ml BSA (Sigma #A3059) was included in all assays. […] Parent drugs and conjugates were tested at 0.75, 1.5, 3 and 10 micromolar final concentration and results represent a comparison of conjugate and parent drug curves obtained from the linear range of the dose responses.
(±SD) represent the average of all tests carried out for all lots of a given compound.

The subject of data set [7] is HUVEC. The experiment in a line: Cytotoxicity assay (monolayer), HUVEC. The class given is cell-based. To be noted: ML (monolayer), read-out: HUVEC (EC50 Ave) ML.
Data set [8] has as its target T1, Human Src (Homo sapiens, UniProt P12931).
T1 construct: purchased Upstate (Charlottesville, Va.) 14-326
The data set can be described thus: Src kinase assay (PKLight ATP utilization, substrate phosphorylation as % of parent peptide). The class given is biochemical. The protocol:
Another test may involve monitoring the consumption of ATP. For example, ATP concentrations at time 0 or after 4 hour incubation may be monitored by luciferase reaction (PKLight kit obtained from Cambrex Corporation, One Meadowlands Plaza, East Rutherford, N.J. 07073), which generate a luminescence readout in the presence of ATP. Assays are initiated by mixing a kinase and a peptide in the presence of 40 μM ATP. After 4 hour of incubation at 30° C., PKLight reagent is added and mixed well, and luminescence readout measured. The rate of peptide phosphorylation is then directly related to the rate of decrease in the observed luminescence. Based on the first test, linkers of appropriate lengths and peptides with an effective amount of kinase activity which may be expected to be retained in the drug conjugate may be found.
Human Src (#14-326) and Akt (#14-276) kinases were purchased from Upstate (Charlottesville, Va.). Kinase reactions were carried out in 50 μl kinase reaction cocktail (25 mM Tris-HCl, pH 7.5, 5 μM β-glycerophosphate, 2 mM DTT, 0.1 mM Na3VO4, 10 mM MgCl2, 1 mg/ml BSA, […], 0.5 to 1.0 units enzyme). Substrates (peptide or drug-peptide conjugate in […]) were added (25, 50 and 100 μM) and the reaction was incubated for 2-5 hours at 30° C. PKLight reagent (23 μl) (Cambrex BioSciences, Rockland, Me.) was mixed with […] of the above kinase reaction and ATP utilization relative to no substrate and no ATP controls was determined by measuring luminescence with a SpectraMax Gemini EM plate reader (Molecular Devices, Sunnyvale, Calif.). Peptide substrates for Src and Akt have been described. For examples, see Lou et al. Letters in Peptide Science, 2, 289-296 (1995); Lou et al. Bioorganic & Medicinal Chemistry, 4, 677-682 (1996); Alessi et al. FEBS Letters, 399, 333-338 (1996). Substrate phosphorylation potential was determined from the linear portion of the substrate concentration dose response as a percentage of the activity observed with the parent peptide used for drug conjugation.

In the case of `C=CCOC(=O)O[C@@H](C(=O)O[C@H]1C[C@@]2(O)[C@@H](OC(=O)c3ccccc3)[C@@H]3[C@]4(OC(C)=O)CO[C@@H]4C[C@H](O)[C@@]3(C)C(=O)[C@H](OC(C)=O)C(=C1C)C2(C)C)[C@@H](NC(=O)c1ccccc1)c1ccccc1` [PXL-2′Alloc], the EC50 in data set [1], in data set [2], in data set [3], in data set [4], in data set [5] and in data set [7] was less than 20 nM throughout. In addition, the “Ave. MPA Act.” value in data set [6] is listed as “A (A<50)”.

Turning to `CC(=O)O[C@H]1C(=O)[C@]2(C)[C@@H](OC(=O)NCCCCCCN)C[C@H]3OC[C@@]3(OC(C)=O)[C@H]2[C@H](OC(=O)c2ccccc2)[C@]2(O)C[C@H](OC(=O)[C@H](O)[C@@H](NC(=O)c3ccccc3)c3ccccc3)C(C)=C1C2(C)C` [PXL-7Ca-ALK(6)-NH2], the EC50 – broadly, the concentration needed to bring the measured effect to its halfway point – was 100 to 1000 nM in data set [1]; less than 20 nM in data set [2]; less than 20 nM in data set [3]; less than 20 nM in data set [4]; less than 20 nM in data set [5]; less than 20 nM in data set [7]. In addition, in data set [6], the “Ave. MPA Act.” value is recorded as “A (A<50)”.

On to `CC(=O)O[C@H]1C(=O)[C@]2(C)[C@@H](OC(=O)CCCCCN)C[C@H]3OC[C@@]3(OC(C)=O)[C@H]2[C@H](OC(=O)c2ccccc2)[C@]2(O)C[C@H](OC(=O)[C@H](O)[C@@H](NC(=O)c3ccccc3)c3ccccc3)C(C)=C1C2(C)C` [PXL-7Es-ALK(5)-NH2], for which the concentration giving a half-maximal response (EC50) was 100 to 1000 nM in data set [1]; 100 to 1000 nM in data set [2]; less than 20 nM in data set [3]; less than 20 nM in data set [4]; less than 20 nM in data set [5]; less than 20 nM in data set [7]. For the same molecule, the “Ave. MPA Act.” value in data set [6] is reported as “A (A<50)”.

On to `CC(=O)O[C@@]12CO[C@@H]1C[C@H](O)[C@@]1(C)C(=O)[C@H](OC(=O)CCCCCN)C3=C(C)[C@@H](OC(=O)[C@H](O)[C@@H](NC(=O)c4ccccc4)c4ccccc4)C[C@@](O)([C@@H](OC(=O)c4ccccc4)[C@H]21)C3(C)C` [PXL-10Es-ALK(5)-NH2], for which the EC50 in data set [1], in data set [2], in data set [3], in data set [4], in data set [5] and in data set [7] was less than 20 nM in each case. Moreover, the “Ave. MPA Act.” value in data set [6] is on record as “B (B=50-80)”.

As for `CC(=O)O[C@@]12CO[C@@H]1C[C@H](O)[C@@]1(C)C(=O)[C@H](OC(=O)CCCCCCNC(=O)OCc3ccccc3)C3=C(C)[C@@H](OC(=O)[C@H](O)[C@@H](NC(=O)c4ccccc4)c4ccccc4)C[C@@](O)([C@@H](OC(=O)c4ccccc4)[C@H]21)C3(C)C` [PXL-10Es-Alk(6)-NH(Z)], the concentration giving a half-maximal response (EC50) in data set [1], in data set [2], in data set [3], in data set [4], in data set [5] and in data set [7] was less than 20 nM throughout. Also, the “Ave. MPA Act.” value in data set [6] is “A (A<50)”.

For `CC[C@]1(O)C[C@@H]2CN(CCc3c([nH]c4ccccc34)[C@@](C(=O)OC)(c3cc4c(cc3OC)N(C)[C@H]3[C@@](O)(C(=O)NCCCCCCN)[C@H](O)[C@]5(CC)C=CCN6CC[C@]43[C@@H]65)C2)C1` [VBL-3Am-ALK(6)-NH2], the concentration giving a half-maximal response (EC50) in data set [1], in data set [2], in data set [3], in data set [4], in data set [5] and in data set [7] was less than 20 nM throughout. Further, the “Ave. MPA Act.” value in data set [6] is reported as “C (C>80)”.

Regarding `CC[C@]1(O)C[C@@H]2CN(CCc3c([nH]c4ccccc34)[C@@](C(=O)OC)(c3cc4c(cc3OC)N(C)[C@H]3[C@@](O)(C(=O)NCCCCCCNC(=O)OC(C)(C)C)[C@H](O)[C@]5(CC)C=CCN6CC[C@]43[C@@H]65)C2)C1` [VBL-3Am-ALK(6)-NH(B)], the half-maximal effective concentration (EC50) in data set [1], in data set [2], in data set [3], in data set [4], in data set [5] and in data set [7] was less than 20 nM each time. Moreover, the “Ave. MPA Act.” value in data set [6] is on record as “A (A<50)”.

With `CC[C@]1(O)C[C@@H]2CN(CCc3c([nH]c4ccccc34)[C@@](C(=O)OC)(c3cc4c(cc3OC)N(C)[C@H]3[C@@](O)(C(=O)NCCCCCCCCN)[C@H](O)[C@]5(CC)C=CCN6CC[C@]43[C@@H]65)C2)C1` [VBL-3Am-ALK(8)-NH2], the EC50 in data set [1], in data set [2], in data set [3], in data set [4], in data set [5] and in data set [7] was less than 20 nM each time. Further, the “Ave. MPA Act.” value in data set [6] is reported as “B (B=50-80)”.

On to `CC[C@]1(O)C[C@@H]2CN(CCc3c([nH]c4ccccc34)[C@@](C(=O)OC)(c3cc4c(cc3OC)N(C)[C@H]3[C@@](O)(C(=O)NCCCCCCCCCCCCN)[C@H](O)[C@]5(CC)C=CCN6CC[C@]43[C@@H]65)C2)C1` [VBL-3Am-ALK(12)-NH2], for which the half-maximal effective concentration (EC50) in data set [1], in data set [2], in data set [3], in data set [4], in data set [5] and in data set [7] was less than 20 nM throughout. In addition, in data set [6], the “Ave. MPA Act.” value is recorded as “B (B=50-80)”.

On to `CC[C@]1(O)C[C@@H]2CN(CCc3c([nH]c4ccccc34)[C@@](C(=O)OC)(c3cc4c(cc3OC)N(C)[C@H]3[C@@](O)(C(=O)NCCCCCCCCCCCCNC(=O)OC(C)(C)C)[C@H](O)[C@]5(CC)C=CCN6CC[C@]43[C@@H]65)C2)C1` [VBL-3Am-ALK(12)-NH(B)], for which the EC50 was 20 to 100 nM in data set [1]; 100 to 1000 nM in data set [2]; less than 20 nM in data set [3]; less than 20 nM in data set [4]; less than 20 nM in data set [5]; less than 20 nM in data set [7]. The “Ave. MPA Act.” value in data set [6] is “A (A<50)”.

`CC[C@]1(O)CC2CN(CCc3c([nH]c4ccccc34)[C@@](C(=O)OC)(c3cc4c(cc3OC)N(C)[C@H]3C(O)(C(=O)NCCOCCOCCOCCN)[C@H](O)[C@]5(CC)C=CCN6CCC43[C@@H]65)C2)C1` (stereo partly drawn) [VBL-3Am-PEG(11)-NH2]: the EC50 in data set [1] is 20 to 100 nM; in data set [2], 20 to 100 nM; in data set [3], less than 20 nM; in data set [4], less than 20 nM; in data set [5], less than 20 nM; in data set [7], less than 20 nM. For the same molecule, in data set [6], the “Ave. MPA Act.” value is listed as “B (B=50-80)”.

With “Ac-EYIYGSFR-PEG(11)-3Am-VBL (N-acetyl, PEG11, vinblastine conjugate)”, the EC50 in data set [1], in data set [2], in data set [3], in data set [4], in data set [5] and in data set [7] was greater than 100 nM in each case. Moreover, the “Average src kinase activity” value in data set [8] is “B (B=20-40)”. For the same molecule, the “Ave. MPA Act.” value in data set [6] is recorded as “C (C>80)”.

For “Ac-EYIyGSFK-PEG(13)-10Ca-PXL (EYIYGSFK; not fully specified)”, the EC50 in data set [1], in data set [2], in data set [3], in data set [4], in data set [5] and in data set [7] was greater than 100 nM in each case. In addition, the “Average src kinase activity” value in data set [8] is listed as “Zero”. Besides, the “Ave. MPA Act.” value in data set [6] was “C (C>80)”.
